# Laboratory results taken from patent publication US10568949B2, “Method of eliciting an anti-tumor immune response with controlled delivery of TLR agonists in porous polymerlc devices” (President and Fellows of Harvard College, priority 2008, dated 2020).
# Where “and” joins values, the source holds several entries; their conditions need not be identical. Equal entries are not always repeated.
# B1: granulocyte macrophage colony stimulating factor (protein, UniProt P01587 18-141, looked up)
# Granulocyte-macrophage …: APTRSPITVTRPWKHVEAIKEALNLLDDMPVTLNEEVEVVSNEFSFKKLTCVQTRLKIFEQGLRGNFTKLKGALNMTASYYQTYCPPTPETDCETQVTTYADFIDSLKTFLTDIPFECKKPGQK
# notes: cytokine encapsulated in and released from PLG matrices to recruit DCs
# Columns and labels:
# host DCs [1] = experiment: In vivo DC recruitment and activation in PLG matrices (FACS); design: species or system C57BL/6J mice; conditions: for proportion of CD8+ cDCs in DC population at vaccine site / proportion of pDCs in DC population at vaccine site / total DC numbers in situ: antigen-loaded matrices, CpG and GM-CSF together versus GM-CSF alone
# Method: Blank scaffolds and scaffolds containing GM-CSF with or without 10 μg PEI-ODN control (5′-tcc atg agc ttc ctg agc tt-3′) (SEQ ID NO: 6) or 10 μg PEI-CpG-ODN condensate loaded scaffolds were implanted into subcutaneous pockets on the back of 7-9 week old male C57BL/6J mice. For histological examination scaffolds were excised and fixed in Z-fix solution, embedded in paraffin, and stained with hematoxylin and eosin. To analyze DC recruitment, scaffolds were excised and the ingrown tissue was digested into single cell suspensions using a collagenase solution (Worthingtion, 250 U/ml) that was agitated at 37° C. for 45 minutes. The cell suspensions were then poured through a 40 μm cell strainer to isolate cells from scaffold particles and the cells were pelleted and washed with cold PBS and counted using a Z2 coulter counter (Beckman Coulter). The resultant cell populations were then stained with primary antibodies (BD Pharmingen, San Diego, Calif.) conjugated to fluorescent markers to allow for analysis by flow cytometry. APC-conjugated CD11c (dendritic cell marker) and PE-conjugated CD86 (B7, costimulatory molecule) stains were conducted for DC recruitment analysis, and APC-conjugated CD11c, FITC-conjugated CCR7, and PE-conjugated MHCII stains were conducted for DC programming analysis. Cells were gated according to positive FITC, APC and PE using isotype controls, and the percentage of cells staining positive for each surface antigen was recorded. To track in vivo DC emigration from scaffolds toward the inguinal lymph nodes, 250 μg of lyophilized fluoroscein isothiocyanate (FITC) (Molecular Probes, Carlsbad, Calif.) was incorporated into scaffolds by mixing with PLG microspheres before scaffold processing, and FITC was also applied by incubating scaffolds with 330 ul of 3% FITC solution for 30 min. […] Cell suspensions from LNs were prepared by digestion in collagenase for 30 min and pressing of the tissue through 70 μm cell strainers, and examined for CD11c(+)FITC(+) cell numbers by flow cytometry.
# Blank PLG matrices and matrices containing 3000 ng of GM-CSF alone or in combination with either 1, 10, 50, or 100 μg of CpG-ODN (studies were also performed with tumor lysates copresented with either 3000 ng of GM-CSF or 100 μg of CpG-ODN alone or in combination) were implanted into subcutaneous pockets on the back of 7- to 9-week-old male C57BL/6J mice. For histological examination, scaffolds were excised and fixed in Z-fix solution (Anatech), embedded in paraffin, and stained with hematoxylin and eosin (H&E). To analyze DC recruitment, scaffolds were excised at various time points and digested the ingrown tissue into single-cell suspensions with a collagenase solution (250 U/ml; Worthington) that was agitated at 37° C. for 45 min. The cell suspensions were then poured through a 40-μm cell strainer to isolate cells from scaffold particles, and the cells were pelleted and washed with cold PBS and counted with a Z2 coulter counter (Beckman Coulter). To assess DC infiltration and activation, subsets of the total cell population isolated from PLG matrices were stained with primary antibodies (BD Pharmingen) conjugated to fluorescent markers to allow for analysis by flow cytometry. Allophycocyanin (APC)-conjugated CD11c (DC marker) and phycoerythrin (PE)-conjugated CD86 (B7, costimulatory molecule) stains were conducted for DC recruitment analysis, and APC-conjugated CD11c, fluorescein isothiocyanate (FITC)-conjugated CCR7, and PE-conjugated MHCII stains were conducted for DC programming analysis. To further delineate the presence of specific DC subsets, cells were stained with APC-conjugated CD11c and PE-conjugated PDCA-1 (pDC marker), APC-conjugated CD11c and PE-conjugated CD8 (CD8 DCs), or APC-conjugated CD11c and FITC-conjugated CD11b (CD11b DCs).
# host DCs [2] = experiment: In vivo DC emigration from FITC painted scaffolds to inguinal lymph nodes; design: species or system C57BL/6J mice; conditions: mouse
# Method: Blank scaffolds and scaffolds containing GM-CSF with or without 10 μg PEI-ODN control (5′-tcc atg agc ttc ctg agc tt-3′) (SEQ ID NO: 6) or 10 μg PEI-CpG-ODN condensate loaded scaffolds were implanted into subcutaneous pockets on the back of 7-9 week old male C57BL/6J mice. For histological examination scaffolds were excised and fixed in Z-fix solution, embedded in paraffin, and stained with hematoxylin and eosin. To analyze DC recruitment, scaffolds were excised and the ingrown tissue was digested into single cell suspensions using a collagenase solution (Worthingtion, 250 U/ml) that was agitated at 37° C. for 45 minutes. The cell suspensions were then poured through a 40 μm cell strainer to isolate cells from scaffold particles and the cells were pelleted and washed with cold PBS and counted using a Z2 coulter counter (Beckman Coulter). The resultant cell populations were then stained with primary antibodies (BD Pharmingen, San Diego, Calif.) conjugated to fluorescent markers to allow for analysis by flow cytometry. […] Cells were gated according to positive FITC, APC and PE using isotype controls, and the percentage of cells staining positive for each surface antigen was recorded. […]
# TRP2-specific CTLs = TRP2-specific CTLs in spleens (pentamer staining); type: in vivo, C57BL/6J mice; conditions: GM-CSF, antigen
# From the text: […] These cells were initially stained with APC-H-2Kb-TRP2 pentamers (Proimmune) and subsequently stained with PE-conjugated monoclonal antibody to CD8 (BD Pharmingen) before being analyzed by flow cytometry.
# B16-F10 melanoma cells [3] = experiment: Example 7: prophylactic vaccination, B16-F10 melanoma; type: in vivo, C57BL/6J mice; design: concentration or dose not given beside the values; conditions: for survival rate: B16-F10 tumor lysates and GM-CSF, with or without TLR agonist, challenge at day 14
# B16-F10 cells = experiment: Example 7: vaccination of mice lacking CD8(+) DCs; type: in vivo; conditions: vaccinated Batf3−/− mice
# Method: C57BL/6 mice and Batf3−/− knockout mice (6-8-week-old female; Jackson Laboratories) were used in the studies described in Example 7.
# Since PLG vaccines incorporating TLR agonists were capable of generating CD8(+) DC populations in situ, which correlated to potent anti-tumor CTL responses and survival (FIGS. 17A-D and 19A-F), studies were carried out to examine whether these cells were required to confer anti-tumor immunity in vivo. […] Wild-type and Batf3−/− mice were vaccinated with CpG-ODN loaded PLG vaccines and challenged with B16-F10 cells 14 days later. Vaccination of wildtype mice promoted complete protection against tumor growth and long-term survival (100% survival), as expected, but vaccinated Batf3−/− were not protected and tumor growth rates were similar to untreated, wild-type animals (FIG. 20A).
# B16-F10 melanoma cells [4] = experiment: Example 7: therapeutic vaccination of established B16-F10 melanoma
# Method: To assess PLG vaccine efficacy in the therapeutic setting, C57/BL6J mice were challenged with a subcutaneous injection of 5×10^5 B16-F10 melanoma cells (ATCC, Manassas, N.J.) in the back of the neck. At day 9 after tumor challenge PLG vaccines loaded with 3000 ng GM-CSF in combination with 100 μg of CpG-ODN, MPLA or P(I:C), and tumor lysates were implanted subcutaneously into the lower left flank of C57BL/6J mice. A subset of mice were vaccinated again 10 days after the initial vaccination (Days 19 and 23).
# Mice challenged with 5×10^5B16-F10 melanoma cells were subsequently vaccinated at days 9 and 19, after tumors were established.
# IL-12p70 and IFN-γ = conditions: tumor lysate and CpG-ODN
# Method: To determine the in vivo IL-12p70 and IFN-γ concentration at the matrix implant site, adjacent tissue was excised and digested with tissue protein extraction reagent at Day 10 after implantation (Pierce). After centrifugation, the concentrations of IL-12 and IFN-γ, in the supernatant were then analyzed with ELISA (R&D systems), according to the manufacturer's instructions. To determine the generation of TRP-2-specific cytotoxic T lymphocytes, single cell suspensions were prepared at Day 10 from the spleens of mice immunized with PLG vaccines. These cells were initially stained with PE-H-2Kb/TRP2 pentamers (Sigma Aldrich), and subsequently stained with FITC-anti-CD8 and PE-CY7 CD3 mAb (mAb (BD Pharmingen, San Diego) before being analyzed using flow cytometry.
# B16-F10 melanoma cells [5] = experiment: Example 8: therapeutic vaccination, B16-F10 melanoma; type: in vivo, C57BL/6J mice; conditions: vaccinated three days after tumor challenge
# Method: PLG scaffolds containing B16-F10 melanoma tumor lysates, 100 μg CpG-ODN in combination with 3 μg GM-CSF, Flt3L or CCL20 were implanted subcutaneously into the lower left flank of C57BL/6J mice to act as cancer vaccines. To assess PLG vaccine efficacy in the therapeutic setting, C57/BL6J mice were challenged with a subcutaneous injection of 5×10^5 B16-F10 melanoma cells (ATCC, Manassas, N.J.) in the back of the neck, and 3 days after tumor challenge PLG vaccines were implanted subcutaneously into the lower left flank. Animals were monitored for the onset of tumor growth (approximately 1 mm^3) and sacrificed for humane reasons when tumors grew to 20-25 mm (longest diameter).
# [6] = optimal CpG-ODN doses (10-25 μg) opposed by GM-CSF 3 μg, in vivo
# [7] = tumor lysate with GM-CSF and CpG, day 10
molecule,measurement,setting,value
CpG-ODN 1826,numbers of resident pDCs,"host DCs [1]; 3000 ng GM-CSF, 10 μg CpG-ODN","520,000 cells"
same,numbers of resident pDCs,"host DCs [1]; 3000 ng GM-CSF, 100 μg CpG-ODN","1,200,000 cells and 1,100,000 cells"
same,increase in CCR7 expressing DCs in matrices over GM-CSF or CpG-ODN delivery alone,host DCs [1]; CpG-ODN with GM-CSF,~4.5 fold
same,increase in MHCII expressing DCs in matrices over GM-CSF or CpG-ODN delivery alone,host DCs [1]; CpG-ODN with GM-CSF,approximately 2.5 fold
same,total cells at the matrix site that were CD8(+),host DCs [1]; antigen presenting matrices with GM-CSF and CpG-ODN,10.3%
same,proportion of CD8+ cDCs in DC population at vaccine site,"host DCs [1]; day 10, listed as CpG",~14% and ~9.4%
same,proportion of pDCs in DC population at vaccine site,"host DCs [1]; day 10, listed as CpG",~31% and ~38%
same,total DC numbers in situ,host DCs [1]; listed as CpG,3.0±0.6 million DCs and 3.05±0.55 million DCs
same,optimal CpG-ODN dose for DC activation in vivo,host DCs [1]; in presence of high GM-CSF levels,10 to 25 µg
same,numbers of activated DCs generated,"host DCs [1]; infection-mimicking system, CpG-ODN ~10-25 μg with GM-CSF",> 10^6
same,DC activation,host DCs [1]; [6],44%
same,number of activated DCs,host DCs [1]; [6],1.5×10^6 cells
same,increase (factor / fold) in pDCs over blank controls,host DCs [1]; [7],10
same,increase (factor / fold) in pDCs over matrices without lysate/antigen,host DCs [1]; [7],2
same,increase (factor / fold) in CD8+ DCs over blank matrices,host DCs [1]; tumor lysates with CpG-ODN and GM-CSF,9
same,number of CD8+ DCs (CD11c(+)CD8(+) cDCs) in matrices,"host DCs [1]; tumor lysates with CpG-ODN, no GM-CSF","200,000"
same,increase in number of DCs recruited to matrices and subsequently dispersed to the lymph nodes,host DCs [2],6 fold
same,TRP2-specific CD8 T cells,TRP2-specific CTLs; CpG dose 50 μg,0.3 % splenocytes
same,survival rate,B16-F10 melanoma cells [3],90%
same,long-term survival,"B16-F10 melanoma cells [3]; wildtype mice, CpG-ODN loaded PLG vaccines",100%
same,decrease in TRP2 specific cytotoxic T cells at vaccine site vs wild-type,B16-F10 cells,3 fold
same,protection against tumor growth,B16-F10 cells,not protected
same,"complete tumor regression, fraction of vaccinated animals","B16-F10 melanoma cells [4]; mouse, in vivo",over a third
same,size of tumors that completely regressed / were eradicated,"B16-F10 melanoma cells [4]; mouse, in vivo",35 mm^2
same,long term survival of mice,B16-F10 melanoma cells [4]; vaccinated at days 9 and 19,33%
B1,day at which activation state of DCs peaked,host DCs [1]; 3000 ng GM-CSF,10 days
same,numbers of resident pDCs,"host DCs [1]; 3000 ng GM-CSF, 0 μg CpG-ODN","190,000 cells"
same,increase (factor / fold) in CD11c DCs recruited vs blank PLG matrices,"host DCs [1]; 3000 ng GM-CSF, day 14",~8
same,day at which activation state of DCs peaked,host DCs [1]; 7000 ng GM-CSF,28 days
same,matrix-resident DCs that were CD11b+,host DCs [1]; GM-CSF delivery,~87%
same,number of DCs residing in the material,host DCs [1]; GM-CSF delivery,~10^6 cells
same,total DC numbers in situ,host DCs [1],4.2±0.9 million DCs and 2.67±0.64 million DCs
same,proportion of CD8+ cDCs in DC population at vaccine site,host DCs [1]; day 10,5.5%
same,proportion of pDCs in DC population at vaccine site,host DCs [1]; day 10,7%
same,number of activated DCs,host DCs [1]; best GM-CSF-based vaccine,"~240,000 DCs"
same,recruited DCs that were activated,host DCs [1]; best GM-CSF-based vaccine,approximately 26%
same,TRP2-specific CD8 T cells,TRP2-specific CTLs; CpG dose 0 μg,0.2 % splenocytes
same,survival rate,B16-F10 melanoma cells [3],10%
same,increase in local concentration of IFN-γ over control scaffolds,IL-12p70 and IFN-γ,~6 fold
same,increase in local concentration of IL-12 over control scaffolds,IL-12p70 and IFN-γ,approximately 3 fold
same,long-term survival rate,B16-F10 melanoma cells [5],88%
